The results in this text go back to patent US7410970B2, “Substituted 1,4,-di-piperidin-4-yl-piperazine derivatives and their use as neurokinin antagonists” (Janssen Pharmaceutica, N.V., priority 2002, dated 2008).

Molecules are shown by their SMILES.

One series addresses T1, h-NK1 receptor (Homo sapiens, UniProt P25103).
T1 construct: expressed in transfected cells; host or cells: CHO cells
The series is described as follows: Binding experiment for h-NK1 receptor: displacement of [3H]-Substance P, CHO cells. The settings on record: cloned human h-NK1 receptors expressed in CHO cells, read-out: h-NK1 pIC50 (converted). The protocol:
(§1) The compounds according to the invention were investigated for interaction with various neurotransmitter receptors, ion channels and transporter binding sites using the radioligand binding technique. Membranes from tissue homogenates or from cells, expressing the receptor or transporter of interests, were incubated with a radioactively labelled substance ([^3H]- or [^125I] ligand) to label a particular receptor. […] Following incubation, labelled membranes were harvested and rinsed with excessive cold buffer to remove non-bound radioactivity by rapid filtration under suction. Membrane bound radioactivity was counted in a scintillation counter and results were expressed in counts per minute (cpm). The compounds were dissolved in DMSO and tested at 10 concentrations ranging from 10^−10 to 10^−5 M. The ability of the compounds according to the invention to displace [^3H]-Substance P from cloned human h-NK1 receptors expressed in CHO cells, to displace [^3H]-SR-48968 from cloned human h-NK2 receptors expressed in Sf9 cells, and to displace [^3H]-SR-142801 from cloned human h-NK3 receptors expressed in CHO cells was evaluated.
A general note: Loss of bound radioactivity is the signal in a displacement assay; it reports binding, not function.

In the next series the target is T2, h-NK2 receptor (Homo sapiens, UniProt P21452).
T2 construct: expressed in transfected cells; host or cells: Sf9 cells
T2 sequence (P21452 1-398): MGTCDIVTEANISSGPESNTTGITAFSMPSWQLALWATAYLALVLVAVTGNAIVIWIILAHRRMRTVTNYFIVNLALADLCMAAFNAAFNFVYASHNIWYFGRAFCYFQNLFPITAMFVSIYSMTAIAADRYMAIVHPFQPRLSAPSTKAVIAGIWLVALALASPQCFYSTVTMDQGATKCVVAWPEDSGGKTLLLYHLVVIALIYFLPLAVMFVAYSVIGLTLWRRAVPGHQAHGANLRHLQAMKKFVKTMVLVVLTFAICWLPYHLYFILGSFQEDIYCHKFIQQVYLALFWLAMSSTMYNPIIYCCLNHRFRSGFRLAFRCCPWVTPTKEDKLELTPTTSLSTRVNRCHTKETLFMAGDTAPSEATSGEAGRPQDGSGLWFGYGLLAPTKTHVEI
Briefly: Binding experiment for h-NK2 receptor: displacement of [3H]-SR-48968, Sf9 cells. The settings on record: cloned human h-NK2 receptors expressed in Sf9 cells, read-out: h-NK2 pIC50 (converted). The method, then: as §1

The next series has as its target T3, h-NK3 receptor (Homo sapiens, UniProt P29371).
T3 construct: expressed in transfected cells; host or cells: CHO cells
T3 sequence (P29371 1-465): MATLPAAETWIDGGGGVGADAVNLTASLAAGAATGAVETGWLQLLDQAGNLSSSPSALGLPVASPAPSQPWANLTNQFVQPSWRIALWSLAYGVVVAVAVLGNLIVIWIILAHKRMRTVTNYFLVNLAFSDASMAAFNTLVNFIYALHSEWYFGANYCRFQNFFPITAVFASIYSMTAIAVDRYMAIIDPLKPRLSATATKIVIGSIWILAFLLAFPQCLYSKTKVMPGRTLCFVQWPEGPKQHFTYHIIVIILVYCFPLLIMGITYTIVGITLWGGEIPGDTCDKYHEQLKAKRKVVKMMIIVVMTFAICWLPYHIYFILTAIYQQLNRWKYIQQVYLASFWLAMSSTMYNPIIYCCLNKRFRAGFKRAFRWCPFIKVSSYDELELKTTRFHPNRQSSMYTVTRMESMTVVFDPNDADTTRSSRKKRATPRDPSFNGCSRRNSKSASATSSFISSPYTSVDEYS
The series is described as follows: Binding experiment for h-NK3 receptor: displacement of [3H]-SR-142801, CHO cells. The settings on record: cloned human h-NK3 receptors expressed in CHO cells, read-out: h-NK3 pIC50 (converted). The method, then: as §1

T1 sequence (P25103 whole entry): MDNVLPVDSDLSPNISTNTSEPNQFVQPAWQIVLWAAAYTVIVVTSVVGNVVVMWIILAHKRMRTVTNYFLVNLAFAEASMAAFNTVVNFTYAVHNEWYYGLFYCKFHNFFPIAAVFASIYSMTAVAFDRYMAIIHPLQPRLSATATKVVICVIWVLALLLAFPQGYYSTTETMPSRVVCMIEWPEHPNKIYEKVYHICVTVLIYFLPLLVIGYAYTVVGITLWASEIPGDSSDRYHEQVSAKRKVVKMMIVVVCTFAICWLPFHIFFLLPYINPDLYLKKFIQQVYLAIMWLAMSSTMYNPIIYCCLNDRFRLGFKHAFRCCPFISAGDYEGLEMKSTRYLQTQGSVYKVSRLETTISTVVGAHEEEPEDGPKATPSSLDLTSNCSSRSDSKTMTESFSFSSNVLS

For the molecule `COc1cc(N)c(Cl)cc1C(=O)N1CCC(N2CCN([C@H]3CCN(C(=O)c4cc(C(F)(F)F)cc(C(F)(F)F)c4)[C@H](Cc4ccccc4)C3)CC2)CC1` [Compound 64], the IC50 at h-NK1 receptor was 7.94 nM; at h-NK2 receptor it was 398 nM; at h-NK3 receptor, 398 nM.

For the molecule `O=C(c1cc(C(F)(F)F)cc(C(F)(F)F)c1)N1CCC(N2CCN(C3CCN(Cc4nc5ccccc5[nH]4)CC3)CC2)CC1Cc1ccccc1` (stereo not shown) [Compound 7], the melting point (usually the temperature, or range, at which the solid turns liquid) is 135 °C.
